Data taken from patent US20240201204A1, “Biomarker and Druggable Target of Neurodegeneration” (University Hospitals Cleveland Medical Center, priority 2020, published 2024).

Legend:
[1] = test system: p300/CBP; assay: p300/CBP activity after TBI (acetylation of p300/CBP, H2AK5, H3K18; western blot); type: in vivo, mouse; details: vs. TBI+Vehicle
Method: (§1) Drug preparation and administration: CGP3466B (Sigma-Aldrich, SML1941) was dissolved in DMSO and then diluted in sterile saline. The final working stock was 0.0014 mg/ml for administering the 0.014 mg/kg dose. Intraperitoneal administration of CGP3466B was initiated 15 min or 24 h after injury, and tissues were harvested 6 h (for SNO-GAPDH, SNO-SIRT1 measurement) or 2 weeks (for ac-tau measurement) later, respectively. Salsalate (AdipoGen, AG-CR1-3574) was dissolved in DMSO and then diluted in sterile PBS. The final working stocks were as follows: 2.5 mg/ml (25 mg/kg dose), 1 mg/ml (10 mg/kg dose), 0.5 mg/ml (5 mg/kg dose). Daily intraperitoneal administration of salsalate was initiated 24 hr after injury and continued throughout behavioral testing. P7C3-A20 and FK866 (Sigma-Aldrich, F8557) were first dissolved in 1 vol of DMSO, followed by addition of 4 vol of Kolliphor and vigorously vortexing. The solution was then diluted with 30 vol of filtered 5% dextrose (pH 7.0). EX527 (Selleckchem, S1541) was dissolved in 1% DMSO+30% polyethylene glycol+1% Tween 80. Daily intraperitoneal administration of P7C3-A20 was initiated 24 hr after poly-traumatic brain injury. EX527 (10 mg/kg) was administer once a day and FK866 was treated twice per day, with the first injection given at the same time as P7C3-A20 (20 mg/kg) and the second injection given 6 h later (LoCoco et al., 2017 eLife). Diflunisal was first dissolved in 1 vol of DMSO, followed by addition of 2 vol of Kolliphor and vigorously vortexing. The solution was then diluted with 7 vol of saline to the appropriate concentration for administration at 25, 50, or 100 mg/kg.
(§2) The pressure in the side not containing the mouse was increased to cause membrane rupture at 20 pounds per square inch (PSI), which generates an about 1-2 ms jet airflow of 137.9+/−13.79 kPa that passes through the animal's head. The head remains untethered in a padded holder, while the body is fully shielded by a metal tube. The jet of air produced upon membrane rupture provides a concussive injury, which is followed by acceleration/deceleration of the head and then exposure to the ensuing blast wave within an enclosed space.
Western blotting: Western blotting was performed as described previously (Min et al., 2010), with the 9AB antibody against acetylated-tau generated in the Gan laboratory. […] Lysates were centrifuged at 170,000 g at 4° C. for 15 min and at 18,000 g at 4° C. for 10 min, after which protein concentrations of supernatants were measured by bicinchoninic acid assay (Thermo Scientific, A53225). […]

[2] = test system: p300/CBP; details: literature (Shirakawa et al., 2016); cited from earlier work
[3] = test system: degenerating axons; assay: Axon degeneration after TBI (silver staining); type: in vivo, mouse; details: vs. TBI+Vehicle
Method: as §1, with “Diflunisal was first dissolved in 1 vol of DMSO, followed by addition of 2 vol of Kolliphor and vigorously vortexing. The solution was then diluted with 7 vol of saline to the appropriate concentration for administration at 25, 50, or 100 mg/kg.” left out

[4] = test system: tau; assay: Tau mislocalization after TBI (tau and NeuN immunohistochemistry); type: in vivo, mouse; details: vs. TBI+Vehicle
Method: as §1, §2
Immunohistochemistry: Mice were transcardially perfused with cold 1× phosphate-buffered saline (PBS) followed by 4% paraformaldehyde in PBS at pH 7.4 under anesthesia. Brains were carefully removed and post-fixed in 4% paraformaldehyde overnight at 4° C. Brains were immersed in 30% sucrose in PBS for 72 h at 4° C. and then rapidly frozen in 2-methylbutane pre-cooled to −20° C. with dry ice. Brains were cut coronally (40 μm) and sections were stored in cryoprotective solution (150 mM Ethylene glycol, 100 mM glycerol, 250 mM PBS) at −20° C. […]

[5] = low-dose salsalate daily IP from 24 h after TBI

Row | Compound | ac-H2AK5 levels in cerebral cortex and hippocampus ([1]; low-dose salsalate after TBI) | ac-H3K18 levels in cerebral cortex and hippocampus ([1]; low-dose salsalate after TBI) | acetylation of p300/CBP ([1]; low-dose salsalate after TBI) | inhibition of p300/CBP [2] | post-TBI axonal degeneration [3, 5] | post-TBI tau mislocalization [4, 5] | ac-p300/CBP in cerebral cortex ([1]; CGP3466B 0.014 mg/kg, after TBI) | post-TBI axon degeneration (silver staining) ([3]; CGP3466B 0.014 mg/kg IP daily) | post-TBI tau mislocalization ([4]; CGP3466B 0.014 mg/kg IP daily, initiated 24 hours after TBI)
1 | O=C(Oc1ccccc1C(=O)O)c1ccccc1O [salsalate] | significantly reduced levels of ac-H2AK5 and ac-H3K18 | significantly reduced levels of ac-H2AK5 and ac-H3K18 | acetylation of p300/CBP was also significantly reduced | known inhibitor of rodent and human p300/CBP | protects mice from post-TBI axonal degeneration | protects mice from post-TBI tau mislocalization | – | – | –
2 | C#CCN(C)CC1=Cc2ccccc2Oc2ccccc21.O=C(O)/C=C\C(=O)O [CGP3466B] | – | – | – | – | – | – | reduces ac-p300/CBP in cerebral cortex after TBI | protects mice from post-TBI axon degeneration | protects mice from post-TBI tau mislocalization
